# Experiments:
# [1] = Selectivity index, ratio of CC50 for cytotoxicity against human MT4 cells assessed as reduction in cell viability by MTT assay to EC50 for antiviral activity against wild type HIV-1 IIIB infected in human MT4 cells assessed as protection against virus-induced cytopathic effect; assay type: toxicity, cell-based; conditions: read-out: Ratio CC50/EC50
# [2] = tested on: Human immunodeficiency virus 1; experiment: Antiviral activity against wild type HIV-1 IIIB infected in human MT4 cells assessed as protection against virus-induced cytopathic effect incubated for 5 days by MTT assay; assay type: functional, organism-based; conditions: Human immunodeficiency virus 1, IIIB, MT4, 120 h
# [3] = Cytotoxicity against human MT4 cells assessed as reduction in cell viability by MTT assay; assay type: toxicity, cell-based
# [4] = tested on: Human immunodeficiency virus 1; experiment: Antiviral activity against NNRTI-resistant HIV-1 harboring K103N mutant infected in human MT4 cells assessed as protection against virus-induced cytopathic effect by MTT assay; assay type: functional, organism-based; conditions: Human immunodeficiency virus 1, MT4
# [5] = tested on: Human immunodeficiency virus 1; experiment: Antiviral activity against NNRTI-resistant HIV-1 harboring RES056 mutant infected in human MT4 cells assessed as protection against virus-induced cytopathic effect by MTT assay; assay type: functional, organism-based; conditions: Human immunodeficiency virus 1, MT4
# [6] = tested on: Human immunodeficiency virus 1; experiment: Antiviral activity against NNRTI-resistant HIV-1 harboring L100I mutant infected in human MT4 cells assessed as protection against virus-induced cytopathic effect by MTT assay; assay type: functional, organism-based; conditions: Human immunodeficiency virus 1, MT4
# [7] = tested on: Human immunodeficiency virus 1; experiment: Antiviral activity against NNRTI-resistant HIV-1 harboring Y181C mutant infected in human MT4 cells assessed as protection against virus-induced cytopathic effect by MTT assay; assay type: functional, organism-based; conditions: Human immunodeficiency virus 1, MT4
# [8] = target: Human immunodeficiency virus type 1 reverse transcriptase (Human immunodeficiency virus 1, UniProt Q72547); experiment: Inhibition of wild type HIV-1 Reverse transcriptase assessed as reduction of biotin-dUTP incorporation into […] using ABTS as substrate preincubated with compound for 1 hr followed by substrate addition in presence of biotin-labeled dNTPs by ELISA analysis
# [9] = tested on: Human immunodeficiency virus 1; experiment: Antiviral activity against NNRTI-resistant HIV-1 harboring E138K mutant infected in human MT4 cells assessed as protection against virus-induced cytopathic effect by MTT assay; assay type: functional, organism-based; conditions: Human immunodeficiency virus 1, MT4
# [10] = tested on: Human immunodeficiency virus 1; experiment: Antiviral activity against NNRTI-resistant HIV-1 harboring Y188L mutant infected in human MT4 cells assessed as protection against virus-induced cytopathic effect by MTT assay; assay type: functional, organism-based; conditions: Human immunodeficiency virus 1, MT4
SMILES,selectivity ratio [1],EC50 [2] [nM],CC50 [3] [nM],EC50 [4] [nM],EC50 [5] [nM],EC50 [6] [nM],EC50 [7] [nM],IC50 [8] [nM],EC50 [9] [nM],EC50 [10] [nM]
Cn1c(Cn2ccc(C(F)(F)F)c(Oc3cc(Cl)cc(-c4cnc5ccccc5c4)c3)c2=O)n[nH]c1=O,133,436,58100,–,–,–,–,–,–,–
Cn1c(Cn2ccc(C(F)(F)F)c(Oc3cc(Cl)cc(-c4ccncc4)c3)c2=O)n[nH]c1=O,4700,15,70500,22,962,12,40,80,39,1320
Cn1c(Cn2ccc(C(F)(F)F)c(Oc3cc(Cl)cc(-c4ccc(C#N)cc4)c3)c2=O)n[nH]c1=O,109,47,5130,–,–,–,–,–,–,–
Cc1ccc(-c2cc(Cl)cc(Oc3c(C(F)(F)F)ccn(Cc4n[nH]c(=O)n4C)c3=O)c2)cc1,11800,8,94200,17,344,13,29,30,37,1350
Cn1c(Cn2ccc(C(F)(F)F)c(Oc3cc(Cl)cc(-c4ccco4)c3)c2=O)n[nH]c1=O,311,190,59100,–,–,–,–,–,–,–
Cn1c(Cn2ccc(C(F)(F)F)c(Oc3cc(Cl)cc(C(=O)O)c3)c2=O)n[nH]c1=O,6,5310,34200,–,–,–,–,–,–,–
Cn1c(Cn2ccc(C(F)(F)F)c(Oc3cc(Cl)cc(-c4cccnc4)c3)c2=O)n[nH]c1=O,210,61,12800,–,–,–,–,–,–,–
Cn1c(Cn2ccc(C(F)(F)F)c(Oc3cc(Cl)cc(C#N)c3)c2=O)n[nH]c1=O [DORAVIRINE],–,8,> 294000,14,128,13,27,–,37,2080
Cn1c(Cn2ccc(C(F)(F)F)c(Oc3cc(Cl)cc(-c4ccc([N+](=O)[O-])cc4)c3)c2=O)n[nH]c1=O,1460,31,45400,–,–,–,–,–,–,–
Cn1c(Cn2ccc(C(F)(F)F)c(Oc3cc(Cl)cc(-c4ccc(C(N)=O)cc4)c3)c2=O)n[nH]c1=O,284,261,74200,–,–,–,–,–,–,–
Cn1c(Cn2ccc(C(F)(F)F)c(Oc3cc(Cl)cc(-c4ccc(F)cc4)c3)c2=O)n[nH]c1=O,161,195,31300,–,–,–,–,–,–,–
Cn1c(Cn2ccc(C(F)(F)F)c(Oc3cc(Cl)cc(-c4ccccc4)c3)c2=O)n[nH]c1=O,505,370,187000,–,–,–,–,–,–,–
Cn1c(Cn2ccc(C(F)(F)F)c(Oc3cc(Cl)cc(Br)c3)c2=O)n[nH]c1=O,14200,10,142000,22,225,12,23,30,28,1340
COC(=O)c1ccc(-c2cc(Cl)cc(Oc3c(C(F)(F)F)ccn(Cc4n[nH]c(=O)n4C)c3=O)c2)cc1,4360,11,47900,19,177,11,17,30,16,760
Cn1c(Cn2ccc(C(F)(F)F)c(Oc3cc(Cl)cc(-c4ccc(N)nc4)c3)c2=O)n[nH]c1=O,154,209,32100,–,–,–,–,–,–,–
Cn1c(Cn2ccc(C(F)(F)F)c(Oc3cc(Cl)cc(C(N)=O)c3)c2=O)n[nH]c1=O,14,2030,28500,–,–,–,–,–,–,–
Cn1c(Cn2ccc(C(F)(F)F)c(Oc3cc(Cl)cc(-c4cnc(N)nc4)c3)c2=O)n[nH]c1=O,19,168,3240,–,–,–,–,–,–,–
Cn1c(Cn2ccc(C(F)(F)F)c(Oc3cc(Cl)cc(-c4ccc(N)cc4)c3)c2=O)n[nH]c1=O,213,158,33700,–,–,–,–,–,–,–
Cn1c(Cn2ccc(C(F)(F)F)c(Oc3cc(Cl)cc(-c4ccoc4)c3)c2=O)n[nH]c1=O,205,280,57400,–,–,–,–,–,–,–
Cn1c(Cn2ccc(C(F)(F)F)c(Oc3cc(Cl)cc(-c4cccs4)c3)c2=O)n[nH]c1=O,48,959,45800,–,–,–,–,–,–,–
Cn1c(Cn2ccc(C(F)(F)F)c(Oc3cc(Cl)cc(-c4cc5ccccc5s4)c3)c2=O)n[nH]c1=O,8420,12,101000,18,185,12,38,40,17,639
Cn1c(Cn2ccc(C(F)(F)F)c(Oc3cc(Cl)cc(-c4ccc(O)cc4)c3)c2=O)n[nH]c1=O,45,361,16200,–,–,–,–,–,–,–
Cn1c(Cn2ccc(C(F)(F)F)c(Oc3cc(Cl)cc(-c4ccsc4)c3)c2=O)n[nH]c1=O,2130,41,87200,–,–,–,–,–,–,–
Cn1c(Cn2ccc(C(F)(F)F)c(Oc3cc(Cl)cc(-c4cncnc4)c3)c2=O)n[nH]c1=O,6470,10,64700,42,91,19,43,40,25,1480
Cn1c(Cn2ccc(C(F)(F)F)c(Oc3cc(Cl)cc(-c4ccc(Cl)cc4)c3)c2=O)n[nH]c1=O,–,11,124000,19,401,14,30,20,28,1490

# Source: ChEMBL document CHEMBL5543149, “Discovery of Novel Aryl Triazolone Dihydropyridines (ATDPs) Targeting Highly Conserved Residue W229 as Promising HIV-1 NNRTIs” (J Med Chem, 2024)
